Test results taken from patent US20140050779A1, “[…]-2 INHIBITORS AND USES THEREOF” (SINGAPORE HEALTH SERVICES PTE. LTD., priority 2011, published 2014).

What was measured:
TG-2 [1] = experiment: Western blot of TG proteins in human scleral fibroblasts after muscarinic agents; format: cell-based; conditions: very low concentrations
Method: (§1) All cells used in examples described herein were between passages 2-4. Passaged cells were plated at a concentration of 2×10^5/mL into 6 well plates containing DMEM with 10% FBS. The cells were seen to attach to the bottom of the culture wells after 4 hours. Old media was removed from wells and 1 mL of drug was added with fresh full medium and incubated at 37° C. Fresh drugs were replaced daily consecutively for the next 5 days to avoid oxidation. The drugs/media was removed and wells were washed twice with 1×PBS. 200 μl of RIPA lysis buffer was added per well and incubated for 5 minutes and cells were scrapped into an eppendorf tube. The cells were stored at −20° C. until sonication. The cells were sonicated on ice thrice at 20% output power for 5 seconds each time and rested 1 minute in between each turn. Cell debris was spun down at 12000 rpm for 20 minutes. The supernatant was poured into a new eppendorf tube and cell concentrations were determined using the Dc Protein assay Kit (Bio-Rad, MA). Passaged cells were plated at a concentration of 1×10^5 into 6 well plates containing DMEM with 10% FBS. The cells were seen to attach to the bottom of the culture wells after 4 hours. Freshly prepared muscarinic agents' at base line, 0.1, 1, 10 and 100 μM concentrations were added for 5 days (Table 2). The culture medium was removed and fresh medium containing the same muscarinic drug added every day to avoid drug changes such as atropine oxidation. Cell lysate was collected for relative quantitative (q) PCR and protein analysis at day 5.
(§2) The cells were lysed by sonification in 1×RIPA lysis buffer (santa cruz biotechnology, Sc-24948) with 10 μl PMSF solution, 10 μl sodium orthovanadate solution and 20 μl protease inhibitor cocktail solution. After centrifugation at 20,000×g at 4° C. for 20 minutes, and the supernatant collected. The protein content in the supernatants was measured using the DC Protein Assay kit (Bio-Rad, MA) following the manufacturer's instructions. Samples were stored at −80° C. until assayed.
(§3) The mouse and human scleral fibroblasts were treated with atropine or carbachol at 0.01, 0.1, 1, 5 and 10 μM concentrations for 5 days. Following 5 days of treatment, the total cellular protein was extracted from these cells and TG proteins detected via Western blot analysis.
Human and, mouse scleral fibroblast proteins in the supernatant were separated by SDS-PAGE, transferred to nitrocellulose membranes, blocked in 5% BSA in TBST (10 mM Tris-HCl [pH 8.0], 150 mM NaCl, and […] Tween-20) for 2 hours at room temperature, and incubated with the same anti-TG-2 antibody described herein at a dilution of 1:1000 and anti β-tubulin antibodies used as a positive control, for 1 hour at room temperature. […]

TG-2 [2] = experiment: Western blot of TG proteins in mouse scleral fibroblasts after muscarinic agents; format: cell-based; conditions: very low concentrations
Method: as §1, §2, §3
Human and, mouse scleral fibroblast proteins in the supernatant were separated by SDS-PAGE, transferred to nitrocellulose membranes, blocked in 5% BSA in TBST (10 mM Tris-HCl [pH 8.0], 150 mM NaCl, and […] Tween-20) for 2 hours at room temperature, and incubated with the same anti-TG-2 antibody described herein at a dilution of 1:1000 and anti β-tubulin antibodies used as a positive control, for 1 hour at room temperature. The membranes were washed 3 times in TBST and incubated with HRP-conjugated secondary antibody (Chemicon International) at a dilution of 1:2500 for 1 hour at room temperature. Immunoreactive bands were visualized using the enhanced chemiluminescence method (GE Healthcare, Buckinghamshire, UK). The membrane was wrapped in plastic and placed against an X-ray film to expose for an appropriate length of time (30 seconds-5 minutes).

TG-2 [3] = experiment: TG-2 colorimetric microassay (transamidase activity) in lysate of treated human scleral fibroblasts; format: cell-based; conditions: for transamidase activity of endogenous cellular TG-2: human scleral fibroblasts, 0.1, 1, 10 and 100 μM for 5 days, concentration-dependent
Method: as §1, with “The cells were seen to attach to the bottom of the culture wells after 4 hours.” left out
(§4) This assay was designed to assess the cross-linking activity of TG-2 between two proteins. TG activity was measured with TG-2 colorimetric Microassay kit (TG-Covtest, Covalab, Cambridge, UK). 150-200 μg of total protein was used per well for the TG-2 assay. Transglutaminase standards (Sigma) were used as a positive control. EDTA was used to inhibit the enzyme activity as a negative control.
(§5) The approximate volume of reagents to use, the wavelengths to use to read absorbance, the incubation times were determined from a previous study that have carried out experiments with similar principles as described in Perez Alea M, Kitamura M, Martin G, Thomas V, Hitomi K, El Alaoui S., “Development of an isoenzyme-specific colorimetric assay for tissue transglutaminase 2 cross-linking activity”, Anal Biochem. 2009 Jun. 15; 389(2):150-6, Epub 2009 March 24. All reagents used and protein coated plates were part of the kit. Biotin cadaverine was reconstituted with 6 ml of deionized water and 90 μl was added into each well of the 96 well plate that comes coated with CBZ-GLN-GLY. The rest of the steps were followed as in the manufacturer's instructions and finally absorbance was read at 450 nm using a microplate reader (TECAN, Austria). All incubations were performed with gentle shaking on a laboratory orbital shaker.
(§6) The TG-2 colorimetric assay serves as a high throughput and quantitative assay to assess transamidase activity. […] In vivo studies with these drugs were also conducted to determine the effect on myopia development (see FIGS. 14 and 15).

TG-2 [4] = experiment: TG-2 colorimetric microassay (transamidase activity) in lysate of treated mouse scleral fibroblasts; format: cell-based; conditions: for transamidase activity of endogenous cellular TG-2: mouse scleral fibroblasts, 0.1, 1, 10 and 100 μM for 5 days, concentration-dependent
Method: as §1, with “The cells were seen to attach to the bottom of the culture wells after 4 hours.” left out
as §4, §5, §6

[5] = tested on: mouse eyes treated with −15D spectacle lens; experiment: spectacle lens-induced myopia in mice, axial length and refractive error; format: in vivo; conditions: lens with 0.1% drug; for axial length: 2 weeks and 4 weeks, vs lens treated eyes; for refractive error: infrared photorefractor
Method: Topical applications were administered to both eyes at the same time each day (approximately 9:00 AM) commencing on the 12th day (initiation of spectacle lens treatment). A compatible drug level was determined prior to the in vivo use in a tissue culture study with mouse scleral fibroblasts. […] This treatment schedule continued for four weeks starting on post-natal day 12 continued until post-natal day 42. All measurements were taken at post-natal day 42, the equivalent of 4 weeks of spectacle lens wear.
Each eye was refracted every week to measure the refractive error using automated infrared photorefraction as described in Barathi, V. A., Beuerman, R. W., Schaeffel, F., 2009a, “Effects of unilateral topical atropine on binocular pupil responses and eye growth in mice”, Vision Res 49, 383-387. By using Optical Low Coherence Interferometry (OLCI, AC Master, Carl-Zeiss), the axial length of the eye was measured in-vivo as described in Yin G C, Gentle A, McBrien N A, “Muscarinic antagonist control of myopia: a molecular search for the M1 receptor in chick”, Mol. Vis. 2004; 13(10):787-93 and Barathi, V. A., Boopathi, V. G., Yap, E. P., Beuerman, R. W., 2008, “Two models of experimental myopia in the mouse”, Vision Res 48, 904-916. […] Differences of refractive power and axial length between eyes were calculated. Independent t-tests were used to compare experimental and control eyes in wild type and TGM2-deleted or M1-M5 mutant mice.
Right eyes were experimental and left eyes served as contra-lateral control. In vivo axial length was measured at 2 weeks and 4 weeks after treatment. […] Automated infrared photorefractor was used to measure the refractive error measurements.

cultured SF cells = experiment: effect of TG-2 inhibitors on cultured scleral fibroblast growth (XCELLigence); format: cell-based; conditions: for SF cell growth and cell numbers: 0.1 μM, 5 days; for SF cell growth and cell numbers at higher concentrations: above 0.1 μM, concentration dependent manner
Method: To test the effect of TG-2 inhibitors on cultured scleral fibroblast growth, cultured SF cells at passage 4 were treated with TG-2 inhibitors at baseline, 0.1, 1, 10 and 100 μM for 5 days. The SF cell growth was monitored by XCELLigence cell impedance.

C[N+]1(C)CCC(OC(=O)C(c2ccccc2)c2ccccc2)CC1.[I-] [4-DAMP, 1,1-Dimethyl-4-diphenylacetoxypiperidinium iodide]
TG-2 protein level (reduction) (TG-2 [1]): significant
TG-2 protein level (reduction) (TG-2 [2]): significant
transamidase activity of endogenous cellular TG-2 (TG-2 [3]): reduced
transamidase activity of endogenous cellular TG-2 (TG-2 [4]): reduced
axial length [5]: significantly reduced
refractive error [5]: shifted from myopic to hyperoic

CCN(CC)CC1CCCCN1CC(=O)N1c2ccccc2C(=O)Nc2cccnc21 (stereo not shown) [AFDX-116]
transamidase activity of endogenous cellular TG-2 (TG-2 [3]): reduced
transamidase activity of endogenous cellular TG-2 (TG-2 [4]): reduced

CC(=O)CSc1n(C)cc[n+]1C.[Cl-] [D003]
cell morphology (cultured SF cells): No change
SF cell growth and cell numbers (cultured SF cells): significantly reduced
SF cell growth and cell numbers at higher concentrations (cultured SF cells): further reduced

NC(=O)C(c1ccccc1)(c1ccccc1)[C@@H]1CCN(CCc2ccc3c(c2)CCO3)C1 [darifenacin]
TG-2 protein level (reduction) (TG-2 [1]): significant
TG-2 protein level (reduction) (TG-2 [2]): significant
transamidase activity of endogenous cellular TG-2 (TG-2 [3]): reduced
TG-2 activity, strongest reduction among the antagonists (TG-2 [3]; human scleral fibroblasts, all concentrations): most significantly reduced
TG-2 activity, strongest reduction among the antagonists (TG-2 [3]; human scleral fibroblasts, low concentrations): most significantly reduced
TG-2 activity as compared to atropine (TG-2 [3]; human scleral fibroblasts, himbacine 0.1, 1, 10 & 100 μM, darifenacin 0.1, 1 & 10 μM): more significantly reduced
transamidase activity of endogenous cellular TG-2 (TG-2 [4]): reduced
TG-2 activity, strongest reduction among the antagonists (TG-2 [4]; mouse scleral fibroblasts, low concentrations): most significantly reduced
axial length [5]: significantly reduced
refractive error [5]: shifted from myopic to hyperoic

CN1CCN(CC(=O)N2c3ccccc3C(=O)Nc3cccnc32)CC1 [pirenzepine]
transamidase activity of endogenous cellular TG-2 (TG-2 [3]): reduced
transamidase activity of endogenous cellular TG-2 (TG-2 [4]): reduced

TAMRA-DON [R002]
SF cell growth and cell numbers (cultured SF cells): significantly reduced
SF cell growth and cell numbers at higher concentrations (cultured SF cells): further reduced
